Data from patent publication US5602100A, “Dermorphin analogs having pharmacological activity” (priority 1988, dated 1997).
Where two headings read alike, the source gives them in different places. Non-standard residues stand in square brackets, D forms with d. Residues, ends and D or L forms follow the SMILES beside them. dNle = CCCC[C@@H](N)C(=O)O; dNva = CCC[C@@H](N)C(=O)O; Orn = NCCC[C@H](N)C(=O)O; Dab = NCC[C@H](N)C(=O)O; Nva = CCC[C@H](N)C(=O)O

How the values were obtained:
[1] = target: T1, μ-opioid receptor (Rattus norvegicus, UniProt P33535); assay: biochemical; assay type: binding
T1 construct: displacement of the radioligands from the rat brain membrane preparations; from tissue; host or cells: rat brain membrane preparations
T1 sequence (P33535 whole entry): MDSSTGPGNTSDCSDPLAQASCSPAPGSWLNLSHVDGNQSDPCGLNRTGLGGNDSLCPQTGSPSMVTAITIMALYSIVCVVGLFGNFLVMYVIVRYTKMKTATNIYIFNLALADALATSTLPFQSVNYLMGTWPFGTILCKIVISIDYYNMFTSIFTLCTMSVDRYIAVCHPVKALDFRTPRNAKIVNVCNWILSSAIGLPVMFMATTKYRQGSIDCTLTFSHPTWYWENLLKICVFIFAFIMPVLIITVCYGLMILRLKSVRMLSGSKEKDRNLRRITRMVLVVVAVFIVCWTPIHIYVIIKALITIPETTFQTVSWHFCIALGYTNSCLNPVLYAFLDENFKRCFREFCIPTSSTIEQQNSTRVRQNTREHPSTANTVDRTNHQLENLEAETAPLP

[2] = test system: PBQ-induced writhing; assay: Mouse writhing test (PBQ); assay type: in vivo; conditions: for PBQ (20 min.) ED50: dose reducing the number of writhes by 50%
Method: The mouse writhing test detects both peripherally and centrally mediated analgesic effects. The test procedure is described in Siegmund et al., Proc. Soc. Exp. Biol. Med., 95, p. 729 (1957). In this test, a control group of albino mice was injected intraperitoneally with 0.3 ml/20 g body weight of a 0.02% solution of 2-phenyl-1,4-benzoquinone (PBQ). The writhing and contortional movements of the mice over the following 15 minutes were recorded. A second group of mice was given a dose of a synthetic dermorphin analog according to this invention, then allowed to wait a period of time before being administered the PBQ injection. The average number of writhes was then recorded and compared to the control group. The results of this test are expressed as the dosage of peptide that reduces the number of writhes by 50% at a given time interval (referred to as ED50).

[3] = target: T2, δ-opioid receptor (Rattus norvegicus, UniProt P33533); assay: biochemical; assay type: binding
T2 construct: displacement of the radioligands from the rat brain membrane preparations; from tissue; host or cells: rat brain membrane preparations
T2 sequence (P33533 whole entry): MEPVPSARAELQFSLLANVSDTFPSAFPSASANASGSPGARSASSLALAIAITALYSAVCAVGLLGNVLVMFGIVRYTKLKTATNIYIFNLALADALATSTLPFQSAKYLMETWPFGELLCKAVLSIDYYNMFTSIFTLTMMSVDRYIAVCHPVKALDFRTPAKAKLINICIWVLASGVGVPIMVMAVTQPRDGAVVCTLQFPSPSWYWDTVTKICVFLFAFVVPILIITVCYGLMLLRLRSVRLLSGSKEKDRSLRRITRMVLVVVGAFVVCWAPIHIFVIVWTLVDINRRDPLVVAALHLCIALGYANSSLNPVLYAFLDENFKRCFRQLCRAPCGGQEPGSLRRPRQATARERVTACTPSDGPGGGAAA

[4] = test system: PBQ-induced writhing; assay: Mouse writhing test with prior N-methyllevallorphan (NML); assay type: in vivo; conditions: 10 mg/kg N-methyllevallorphan before peptide
Method: A variation of the mouse writhing experiment was also conducted to determine peripheral versus central binding preferences of certain peptides of this invention. In this experiment, 10 mg/kg of N-methyllevallorphan (NML), a known peripheral opioid antagonist, was administered to the mice before injection of the synthetic dermorphin peptide.

[5] = test system: hot plate stimulus; assay: Mouse hot plate test; assay type: in vivo; conditions: for ratio of ED50 for PBQ assay over ED50 for the hot plate assay: peripheral/central activity ratio; for Hot plate ED50: mouse, in vivo
Method: The mouse hot plate test is an assay which only detects centrally-mediated analgesic effects. This test was carried out using the protocol described in G. Woolfe and A. MacDonald, J. Pharmacol. Exp. Ther., 80, p. 300 ([…]).
Since most of the peptides of the invention were not potent centrally, it was impossible to determine an ED50 value. […] A result is considered insignificant if 30% of mice or lower have responded.

[6] = Respiration rate (respiratory depression); assay type: in vivo, rat; conditions: control 142 ± 5
Method: In addition to the mouse writhing data, respiratory depression was measured in certain treated mice. Respiratory depression is a commonly observed side effect characteristic of centrally-acting opiates. These reulsts are expressed in Table 5.

[7] = test system: guinea pig ileum (GPI); assay: Ke values for naloxone as antagonist in the GPI assay; assay type: cell-based; conditions: mean of three determinations ± SEM
Method: κ-receptor interactions were determined by measuring Ke values for naloxone as an antagonist in the GPI assay. High Ke values (in the range of 20-30 nM) are associated with κ-receptor interactions. Low Ke values (in the range of 1-2 nM) are associated with μ-receptor interactions. Ke values for naloxone were determined from the ratio of IC50 values obtained in the presence of and in the absence of a fixed naloxone concentration. The IC50 values of the tested compounds were normalized according to published procedure (F. M. Leslie, "Methods Used for the Study of Opioid Receptors", Pharmacological Reviews, 39 (1987)).

[8] = test system: guinea pig ileum (GPI); assay type: cell-based
[9] = test system: mouse vas deferens (MVD); assay type: cell-based

With `CCC[C@@H](NC(=O)[C@@H](N)Cc1ccc(O)cc1)C(=O)N[C@@H](Cc1ccccc1)C(=O)N[C@@H](CCCCN)C(N)=O` [BCH-2200, H-Tyr-D-Nva-Phe-Lys-NH2] (H-Y[dNva]FK-NH2) the Ki [1] was 2.27 nM, the “Ki^δ /Ki^μ” value [1] was > 1110 and the “PBQ (20 min.) ED50” value [2] was 0.3 mg/kg. For the same compound, the Ki [3] was > 2530 nM and the “Antagonism of antinociceptive effect by prior NML” value (shortened to “Antagonism”) [4] was “partially or totally antagonized”.

For `CN1CC[C@]23c4c5ccc(O)c4O[C@H]2[C@@H](O)C=C[C@H]3[C@H]1C5` [morphine, reference compound], the ED50 ([2]; Mus musculus, 20 min, read-out: PBQ (20 min.) ED50, dose reducing the number of writhes by 50%) was 0.6 mg/kg, the ED50 ([5]; Mus musculus) was 2.7 mg/kg and the “ratio of ED50 for PBQ assay over ED50 for the hot plate assay” value [5] was 4.5. For the same compound, the Breaths per min. ([6]; dose 30 mg/kg) was 104 ± 6 breaths per min and the “Antagonism” value [4] was “not antagonized”.

For `N=C(N)NCCC[C@@H](NC(=O)[C@@H](N)Cc1ccc(O)cc1)C(=O)N[C@@H](Cc1ccccc1)C(=O)N[C@@H](CCN)C(N)=O` [BCH-1764, H-Tyr-D-Arg-Phe-A2 bu-NH2] (H-Y[dR]F[Dab]-NH2), the Ki [1] was 5.78 nM, the “Ki^δ /Ki^μ” value [1] was 2180 and the “PBQ (20 min.) ED50” value [2] was 0.13 mg/kg. The “Ke (naloxone)” value [7] was 1.32 ± 0.05 nm, the Ki [3] was 12600 nM and the “% of animals showing a 50% increase” value ([5]; dose 40 mg/kg, time 60 min.) was 100%. The GPI relative potency [8] was 0.956 ± 0.208, the IC50 [8] was 257 ± 56 nM and the “MVD/GPI IC50 ratio” value [8] was 2.56. For the same compound, the IC50 [9] was 659 ± 123 nM and the MVD relative potency [9] was 0.0173 ± 0.0032.

With “H-Tyr-D-Ala-Gly-Phe(NMe)-Gly-ol [DAGO, reference compound]” the “Ke (naloxone)” value [7] was 0.800 ± 0.100 nm, the IC50 [8] was 28 ± 3.7 nM and the IC50 [9] was 950 ± 269 nM.

For `CC(C)[C@@H](NC(=O)[C@@H](N)Cc1ccc(O)cc1)C(=O)N[C@@H](Cc1ccccc1)C(=O)N[C@@H](CCCCN)C(N)=O` [BCH-2206, H-Tyr-D-Val-Phe-Lys-NH2] (H-Y[dV]FK-NH2), the Ki [1] was 6.58 nM, the “Ki^δ /Ki^μ” value [1] was > 384 and the “PBQ (20 min.) ED50” value [2] was 4.8 mg/kg. For the same compound, the Ki [3] was > 2530 nM, the “% of animals showing a 50% increase” value ([5]; dose 40 mg/kg, time 120 min.) was 30% and the “% of animals showing a 50% increase” value ([5]; dose 100 mg/kg, time 120 min.) was 90%. For the same compound, the Breaths per min. ([6]; dose 30 mg/kg) was 168 ± 13 breaths per min.

In the case of `NCCCC[C@H](NC(=O)[C@H](Cc1ccccc1)NC(=O)[C@@H](CCCN=C(N)N)NC(=O)[C@@H](N)Cc1ccc(O)cc1)C(N)=O` [BCH-150, H-Tyr-D-Arg-Phe-Lys-NH2], the “PBQ (20 min.) ED50” value [2] is reported as 0.65 mg/kg, the “Ke (naloxone)” value [7] is reported as 1.17 ± 0.08 nm and the Ki ([3]; read-out: [3H]HSLET Ki^δ) is reported as 19200 nM. The “Hot plate ED50” value [5] was 19 mg/kg, the Breaths per min. ([6]; dose 30 mg/kg) was 121 ± 6 breaths per min and the IC50 [8] was 338 ± 41 nM. For the same compound, the IC50 [9] was 781 ± 146 nM and the “Antagonism” value [4] was “partially or totally antagonized”.

In the case of `CC(C)C[C@H](NC(=O)[C@H](Cc1ccccc1)NC(=O)CNC(=O)CNC(=O)[C@@H](N)Cc1ccc(O)cc1)C(=O)O` [Leu-enkephalin, [Leu^5]enkephalin, reference compound], the “Ke (naloxone)” value [7] is reported as 1.53 ± 0.43 nm.

In the case of `N=C(N)NCCC[C@@H](NC(=O)[C@@H](N)Cc1ccc(O)cc1)C(=O)N[C@@H](Cc1ccccc1)C(=O)N[C@@H](CCCN)C(N)=O` [BCH-1765, H-Tyr-D-Arg-Phe-Orn-NH2], the “Ki^δ /Ki^μ” value [1] is reported as 7740, the Ki ([1]; read-out: [3H]DAGO Ki^μ) is reported as 1.2 nM and the “PBQ (20 min.) ED50” value [2] is reported as < 1 mg/kg. The “Ke (naloxone)” value [7] was 1.24 ± 0.12 nm, the Ki ([3]; read-out: [3H]HSLET Ki^δ) was 9290 nM and the “% of animals showing a 50% increase” value ([5]; dose 40 mg/kg, time 120 min.) was 100%. For the same compound, the GPI relative potency [8] was 0.712 ± 0.249, the IC50 [8] was 346 ± 121 nM and the “MVD/GPI IC50 ratio” value [8] was 3.15. It also gave an IC50 [9] of 1090 ± 279 nM and an MVD relative potency [9] of 0.0105 ± 0.0027.

In the case of `CCC[C@@H](NC(=O)[C@@H](N)Cc1ccc(O)cc1)C(=O)N[C@@H](Cc1ccccc1)C(=O)N[C@@H](CCCN)C(N)=O` [BCH-752, H-Tyr-D-Nva-Phe-Orn-NH2] (H-Y[dNva]F[Orn]-NH2), the “Ki^δ /Ki^μ” value [1] is reported as 1880, the Ki ([1]; read-out: [3H]DAGO Ki^μ) is reported as 1.17 nM and the “PBQ (20 min.) ED50” value [2] is reported as 0.2 mg/kg. The “Ke (naloxone)” value [7] was 1.55 ± 0.23 nm, the Ki ([3]; read-out: [3H]HSLET Ki^δ) was 2200 nM and the “Hot plate ED50” value [5] was 5.2 mg/kg. The “ratio of ED50 for PBQ assay over ED50 for the hot plate assay” value [5] was 26, the Breaths per min. ([6]; dose 30 mg/kg) was 122 ± 14 breaths per min and the GPI relative potency [8] was 2.36 ± 0.33. The IC50 [8] was 104 ± 15 nM, the “MVD/GPI IC50 ratio” value [8] was 2.61 and the IC50 [9] was 271 ± 63 nM. For the same compound, the MVD relative potency [9] was 0.0420 ± 0.0098 and the “Antagonism” value [4] was “partially or totally antagonized”.

In the case of `CCCC[C@@H](NC(=O)[C@@H](N)Cc1ccc(O)cc1)C(=O)N[C@@H](Cc1ccccc1)C(=O)N[C@@H](CCCN)C(N)=O` [BCH-1763, H-Tyr-D-Nle-Phe-Orn-NH2] (H-Y[dNle]F[Orn]-NH2), the “Ki^δ /Ki^μ” value [1] is reported as 2130, the Ki ([1]; read-out: [3H]DAGO Ki^μ) is reported as 1.35 nM and the “PBQ (20 min.) ED50” value [2] is reported as 0.3 mg/kg. For the same compound, the “Ke (naloxone)” value [7] was 1.01 ± 0.18 nm, the Ki ([3]; read-out: [3H]HSLET Ki^δ) was 2870 nM and the “% of animals showing a 50% increase” value ([5]; dose 40 mg/kg, time 120 min.) was 90%. For the same compound, the Breaths per min. ([6]; dose 30 mg/kg) was 162 ± 10 breaths per min, the GPI relative potency [8] was 1.46 ± 0.29 and the IC50 [8] was 168 ± 33 nM. The “MVD/GPI IC50 ratio” value [8] was 13.6, the IC50 [9] was 2290 ± 270 nM and the MVD relative potency [9] was 0.00498 ± 0.00058.

For `CCCC[C@@H](NC(=O)[C@@H](N)Cc1ccc(O)cc1)C(=O)N[C@@H](Cc1ccccc1)C(=O)N[C@@H](CCCCN)C(N)=O` [BCH-2205, H-Tyr-D-Nle-Phe-Lys-NH2] (H-Y[dNle]FK-NH2), the Ki [1] was 12.4 nM, the “Ki^δ /Ki^μ” value [1] was 306 and the “PBQ (20 min.) ED50” value [2] was 1.8 mg/kg. The Ki [3] was 3800 nM, the “% of animals showing a 50% increase” value ([5]; dose 40 mg/kg, time 30 min.) was 60% and the “% of animals showing a 50% increase” value ([5]; dose 100 mg/kg, time 60 min.) was 60%. For the same compound, the Breaths per min. ([6]; dose 30 mg/kg) was 158 ± 7 breaths per min and the Breaths per min. ([6]; dose 100 mg/kg) was 150 ± 4 breaths per min.

With `CCC[C@H](NC(=O)[C@H](Cc1ccccc1)NC(=O)[C@@H](CCCNC(=N)N)NC(=O)[C@@H](N)Cc1ccc(O)cc1)C(N)=O` [BCH-1788, H-Tyr-D-Arg-Phe-Nva-NH2] (H-Y[dR]F[Nva]-NH2) the Ki [1] was 11.7 nM, the “Ki^δ /Ki^μ” value [1] was > 216 and the “PBQ (20 min.) ED50” value [2] was 1.3 mg/kg. For the same compound, the Ki [3] was > 2530 nM, the “% of animals showing a 50% increase” value ([5]; dose 40 mg/kg, time 60 min.) was 45% and the “% of animals showing a 50% increase” value ([5]; dose 100 mg/kg, time 60 min.) was 60%. It also gave a Breaths per min. ([6]; dose 30 mg/kg) of 163 ± 9 breaths per min and a Breaths per min. ([6]; dose 100 mg/kg) of 125 ± 4 breaths per min.
